Results taken from PubChem BioAssay (NCI).
Values joined by “and” are separate entries in the source; they are usually repeats but may differ in a detail not shown here. Identical values can stand only once.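 Grown in 96-well plates, cells were treated for 48 hours with each compound at five concentrations. Insufficient inhibition: endpoint recorded as highest concentration tested. At the GI50, growth is halved. Definition used: TGI = concentration required for complete inhibition of growth.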

What was measured:
Experiment in all cases: inhibition of tumour cell growth, NCI panel, 48 h
[1] = test system: MDA-N
[2] = test system: DMS 114 small cell lung
[3] = test system: DMS 273 small cell lung
[4] = test system: HOP-18 NSCLC
[5] = test system: LXFL 529 NSCLC
[6] = test system: M19-MEL melanoma
[7] = test system: SN12K1 renal
[8] = test system: SNB-78 CNS
[9] = test system: XF 498 CNS
[10] = test system: RXF-631 renal

O=CNc1ccc2c(c1)C(=O)c1ccccc1-2
TGI [1]: > 100 µM

CC1(C)OC1COc1c2occc2cc2ccc(=O)oc12 (configuration not stated)
TGI [1]: > 100 µM

O=C(O)c1ccc2c(c1C(=O)O)C(=O)OC2(c1ccc(O)cc1)c1ccc(O)cc1
TGI [1]: > 100 µM

O=S(=O)(c1ccccc1)N1CCN(S(=O)(=O)c2ccccc2)c2ccccc21
TGI [1]: > 100 µM

CN(C)CC1CC/C(=C\c2ccc(O)cc2)C1=O (configuration not stated)
TGI [2]: 23.5 µM | TGI [3]: 9.68 µM | TGI [4]: 15.9 µM | TGI [5]: 3.45 µM | TGI [6]: 7.55 µM | TGI [1]: 6.8 µM | TGI [7]: 3.4 µM | TGI [8]: 17.9 µM | TGI [9]: 11.3 µM

CC1=C2C(=C[C@@](C)(CO)[C@@H]2O)C(=O)[C@](C)(O)C12CC2
TGI [1]: 0.0272 µM and 0.0105 µM

CC(=O)NNc1nc(C)c(C(=O)/C=C/c2ccc(NC(C)=O)cc2)s1
TGI [3]: > 100 µM | TGI [4]: > 100 µM | TGI [6]: > 100 µM | TGI [10]: > 100 µM | TGI [8]: > 100 µM

O=C(O)c1nc2nc(Cl)c(Cl)nc2[nH]1
TGI [1]: > 100 µM

O=S(=O)(N/N=C/c1cccc(/C=N/NS(=O)(=O)c2ccccc2)c1)c1ccccc1
TGI [2]: > 100 µM | TGI [3]: > 100 µM | TGI [4]: > 100 µM | TGI [5]: > 100 µM | TGI [6]: > 100 µM | TGI [10]: > 100 µM | TGI [8]: > 100 µM

O=c1ccc2ccccc2cc1[O-].O=c1ccc2ccccc2cc1[O-].[O]=[U+2]=[O]
GI50 [2]: 19.9 µM | TGI [2]: 55.3 µM | GI50 [3]: 6.71 µM | TGI [3]: > 100 µM | GI50 [5]: 16.8 µM | TGI [5]: 51.6 µM | GI50 [6]: 24.8 µM | TGI [6]: 96.7 µM | GI50 [10]: 11.1 µM | TGI [10]: 41.6 µM | GI50 [9]: 19.5 µM | TGI [9]: 40 µM

CC(C)(C)c1cc2c(O)c3cccc4c(=O)c5cccc6c5-c(c34)c2c(c1)c6=O
TGI [3]: > 100 µM | TGI [4]: > 100 µM | TGI [5]: > 100 µM | TGI [6]: > 100 µM | TGI [9]: 88.5 µM

CCOC(=O)C1=C(C(=O)OCC)C2c3ccccc3C=CN2C(C(=O)OCC)=C(SC)S1 (configuration not stated)
TGI [2]: > 100 µM | TGI [3]: > 100 µM | TGI [5]: > 100 µM | TGI [6]: > 100 µM | TGI [8]: > 100 µM

O=C1CCC2(c3ccc(Cl)cc3)Nc3ccncc3N12 (configuration not stated)
TGI [1]: > 10 µM

COc1nc(NC2OC(COC(C)=O)C(OC(C)=O)C(OC(C)=O)C2OC(C)=O)c2c(OC(C)=O)cc(=O)oc2n1 (configuration not stated)
TGI [2]: > 100 µM | TGI [3]: > 100 µM | TGI [4]: > 100 µM | TGI [5]: > 100 µM | TGI [6]: > 100 µM | TGI [8]: > 100 µM | TGI [9]: > 100 µM

Cc1ccc(/C=C/C(=O)CCN(C)C)cc1
TGI [2]: 32.5 µM | TGI [3]: 25.6 µM | TGI [4]: 38.4 µM | TGI [5]: 34.2 µM | TGI [6]: 38.7 µM | TGI [8]: 87 µM | TGI [9]: 28.5 µM

CC(=O)CC(OC(C)=O)C1=CCC2C(CC1C)OC(=O)C2C (configuration not stated)
TGI [1]: > 100 µM

CN(C)CCn1c2c3ccccc3ccc2c2oc(=O)c3ccccc3c21
TGI [4]: 35.3 µM | TGI [5]: 17.2 µM | TGI [6]: 25 µM | TGI [10]: 31.5 µM | TGI [8]: 48.1 µM | TGI [9]: 30.1 µM

CC(C)=CCC(O)C1=CC(=O)c2c(O)ccc(O)c2C1=O (configuration not stated)
TGI [1]: 2.3 µM

Oc1[nH]c2ccccc2c1N=Nc1nc(-c2ccc(Br)cc2)cs1
TGI [1]: > 100 µM

COC(=O)C(CCCN1C(=O)c2ccccc2C1=O)C(=O)OC
TGI [2]: > 100 µM | TGI [3]: > 100 µM | TGI [4]: > 100 µM | TGI [5]: > 100 µM | TGI [6]: > 100 µM | TGI [8]: > 100 µM | TGI [9]: > 100 µM

CCCCN(CCCC)C(=O)C(=O)C(C(=O)c1ccc(OC)cc1)c1ccc(OC)cc1 (configuration not stated)
TGI [2]: > 100 µM | TGI [4]: > 100 µM | TGI [5]: > 100 µM | TGI [10]: > 100 µM | TGI [8]: > 100 µM

O=C(/C=C/c1ccc(O)cc1)c1ccc(O)cc1
TGI [2]: 43.8 µM | TGI [3]: 36.9 µM | TGI [4]: > 100 µM | TGI [6]: 42.2 µM | TGI [1]: > 88.4 µM | TGI [8]: > 100 µM | TGI [9]: 34.1 µM
